Several values for one entry are separate records, joined by “and”; a condition that tells them apart may be missing. Equal entries are not always repeated.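 Tested at 5 concentrations; 48 h exposure; 96-well plates; endpoints linearly interpolated, else capped at highest concentration. GI50 = concentration required for 50% inhibition of growth. The concentration for full growth arrest is given as TGI.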

What all share (experiment): NCI tumour cell line growth inhibition, 48 h
Experiment [1] concerns KM20L2 colon.
The subject of experiment [2] is LXFL 529 NSCLC.
The test system of experiment [3] is DMS 273 small cell lung.
Experiment [4] concerns M19-MEL melanoma.
Experiment [5] concerns RXF-631 renal.
Experiment [6] concerns SN12K1 renal.
The test system of experiment [7] is P388 leukemia.
The subject of experiment [8] is P388/ADR leukemia.
In experiment [9] the test system is T-47D breast.
In experiment [10] the test system is MDA-N.
Experiment [11] has as its system HS 578T breast.

As for `CNC(=S)/N=C(\N)N(C)C`, the TGI in experiment [1], in experiment [2], in experiment [3] and in experiment [4] was over 100 µM each time.
Regarding `O=C1c2ccccc2C(=O)C1(O)c1c[nH]c2ccccc12`, the TGI in experiment [5], in experiment [1], in experiment [2] and in experiment [4] was over 100 µM each time.
For the compound `COc1cc(Cc2nccc3cc(OC)c(OC)cc23)c(C(C)=O)cc1OC`, the TGI in experiment [5] is over 750 µM; in [1], 200 µM and > 750 µM; in experiment [6], 300 µM; in [2], over 750 µM; in [7], 119 µM; in experiment [3], 300 µM and > 750 µM. For the same compound, the TGI in experiment [8] was 30 µM; in experiment [9] it was 25.1 µM; in experiment [4], 223 µM and > 750 µM. In addition, the GI50 in experiment [1], in experiment [3] and in [4] was over 750 µM each time.
As for `COc1cc2[nH]c3c(c2cc1OC)CCN[C@]31CC[C@]2(CC3c4c(cc(OC)c(O)c42)CCN3C)C[C@H]1OC` (stereo not given in full), the TGI in experiment [5] worked out at 25.7 µM; in [1], 60.5 µM; in [2], 61 µM; in experiment [3] it was 4.46 µM; in [4], 32.9 µM.
On to `Cc1[nH]c(=O)nc2[nH][nH]c(=O)c12`, for which the TGI in [2] and in experiment [4] was over 100 µM each time.
As for `O=C(O)CNS(=O)(=O)c1ccc(NC(=O)c2ccc([N+](=O)[O-])cc2)cc1`, the TGI in experiment [5], in experiment [1], in [2], in experiment [3] and in [4] was over 100 µM in each case.
Take `O=C(c1cccc2ccccc12)N1CCC(C2CCN(C(=O)c3cccc4ccccc34)CC2)CC1`: the TGI in [5], in experiment [1], in [2], in experiment [3] and in [4] was over 100 µM throughout.
In the case of `CCCN(CCC)C(=O)c1c([N+](=O)[O-])cc(C(F)(F)F)cc1[N+](=O)[O-]`, the TGI in experiment [1] was 53.7 µM; in [2] it was over 100 µM; in experiment [3] it was over 100 µM; in [4], 27 µM.
For `Cc1nnc(NS(=O)(=O)c2ccc(N=Nc3cc(N=Nc4ccc(S(=O)(=O)Nc5nnc(C)s5)cc4)c4c(NC(=O)C(Cl)Cl)cccc4c3OC(=O)C(Cl)Cl)cc2)s1` (tested in a mixture with another compound), the TGI in [5] is over 100 µM; in experiment [1] it was over 100 µM; in experiment [2], over 100 µM; in [3], 39.8 µM; in [4], 57.2 µM.
Take `O=C(/C=C/c1ccc(Cl)c(Cl)c1)c1ccc2ccccc2c1`: the TGI in experiment [5], in experiment [1], in experiment [2], in experiment [3] and in experiment [4] was over 100 µM in each case.
Regarding `[N-]=[N+]=C1C(=O)NN=C1c1ccccc1`, the TGI in [5], in experiment [1], in experiment [2], in experiment [3] and in [4] was over 100 µM each time.
In the case of `CN(Cc1ccccc1)C(=O)c1ccccc1C(=O)O`, the TGI in [5], in experiment [1], in [2], in experiment [3] and in experiment [4] was over 100 µM each time.
Take `CCOC(=O)C(=O)Nc1ccccc1CC`: the TGI in [5], in experiment [2] and in experiment [4] was over 100 µM throughout.
As to `CCCC1=C(CC)C(C(=O)Nc2c(C)cccc2C)=NC(S)N1` (stereo not given), the TGI in experiment [1], in experiment [2], in experiment [3] and in experiment [4] was over 100 µM in each case.
In the case of `O=C(CCc1nc(=S)[nH][nH]1)Nc1ccccc1Cl`, the TGI in experiment [1], in experiment [2], in [3] and in experiment [4] was over 100 µM throughout.
`Clc1cc(Cl)c2ns[s+]c2c1Cl`: the TGI in experiment [1], in experiment [2], in [3] and in [4] was over 100 µM throughout.
As for `CCOC(=O)N[C@@H]1C(CC(=O)OC)O[C@H]2OC(C)(C)O[C@H]21` (stereo not given in full), the TGI in experiment [5], in experiment [1], in [2], in [3] and in experiment [4] was over 100 µM in each case.
Take `CC(=O)C1Cn2c(nc3ccccc32)C[Se]1` (stereo not given): the TGI in experiment [5] was 7.76 µM; in experiment [1], 25.8 µM; in experiment [2] it was 10.4 µM; in experiment [4], 4.07 µM.
With `COC(=O)C12CC3CC(CC(C(=O)O)(C3)C1)C2`, the TGI in experiment [5], in [1], in experiment [2], in experiment [3] and in [4] was over 100 µM in each case.
Turning to `COc1c2c(cc3c1OCO3)[C@]13C=C[C@H](OC)C[C@H]1N(C2)CC3O` (stereo not given in full), the TGI in [10], in experiment [11] and in experiment [9] was over 100 µM throughout.
Take `O=C1c2cccnc2-c2nc(-c3ccc(Cl)cc3)cc3c2c1nc1ccccc13`: the GI50 in experiment [10] was 40 µM; in experiment [11], 29 µM; in experiment [9] it was over 100 µM. Moreover, the TGI in experiment [10], in experiment [11] and in experiment [9] was over 100 µM each time.
Take `CC(=O)O[C@H]1CCC2[C@@H]3CC[C@]4(C)CC(=O)C=C[C@]4(C)C3CC[C@@]21C` (stereo not given in full): the TGI was 74.7 µM in experiment [10]; over 100 µM in experiment [5]; 43.5 µM in experiment [1]; 28 µM in [2]; 31.7 µM in [3]; 34.7 µM in experiment [4].
With `CC1=C(/C=C/Cl)CC(Cl)C(C)(Cl)C1` (stereo not given), the TGI in experiment [10], in experiment [11] and in experiment [9] was over 100 µM in each case.
On to `COc1ccc2c3c([nH]c2c1[N+](=O)[O-])C(C)N(C)CC3` (stereo not given), for which the TGI in [1], in experiment [2], in experiment [3] and in [4] was over 100 µM throughout.
In the case of `CCCCNC1CCCCC[C@H]1O` (stereo not given in full), the TGI in experiment [1], in experiment [2], in [3] and in [4] was over 100 µM each time.
On to `C=C(C)CCN[Si](c1ccccc1)(c1ccccc1)C(C)(C)C`, for which the TGI in experiment [5] turned out to be 41.5 µM; in [1] it was 35.3 µM; in [3], 37.6 µM; in experiment [4], 38 µM.
In the case of `COC(=O)C(CC(=O)Nc1ccc(C)cc1)C(=O)C(=O)Nc1c(C(C)C)cccc1C(C)C` (stereo not given), the TGI in [5], in [1], in experiment [2] and in experiment [4] was over 100 µM each time.
For `COc1cc(/C=C/c2ccc(OC)c(O)c2)cc(OC)c1`, the TGI in [1] stood at 47.5 µM; in experiment [2] it was 39.3 µM; in [3], 34.1 µM; in experiment [4] it was 30.9 µM.
Take `CN(C)CCNc1ccc(CO)c2oc3ccc(O)cc3c(=O)c12`: the TGI in experiment [10] stood at 25.7 µM; in experiment [11], 33.4 µM; in experiment [9], 59.4 µM.
With `COC(=O)[C@@]12C(=O)C=CC(=O)C1C1C(=CC2C)OC2OC3(CCCCC3)OC21` (stereo not given in full), the TGI in experiment [1] came out at 38.4 µM; in experiment [2], 26.3 µM; in experiment [3], 36.2 µM; in experiment [4], 35.1 µM.
As for `OCC1OC(n2cnc3c2NC=NC[C@H]3O)C(Cl)C1O` (stereo not given in full), the TGI in [10], in experiment [11] and in [9] was over 100 µM throughout.
For `Nc1ccccc1/C(O)=C1/CCOC1=O`, the TGI in experiment [2] and in experiment [4] was over 100 µM in each case.
With `COc1ccc(CN2CC(C)(C)C2=O)c(OC)c1`, the TGI in experiment [5], in experiment [1], in experiment [3] and in experiment [4] was over 100 µM each time.
In the case of `c1cnn(CN(Cn2cccn2)Cn2cccn2)c1`, the TGI in [1], in [3] and in experiment [4] was over 100 µM in each case.
Regarding `c1ccc(C2N3CCCCC3[C@@H]3c4[nH]c5ccccc5c4CCN23)nc1` (stereo not given in full), the TGI in [5], in experiment [1], in experiment [2], in experiment [3] and in [4] was over 100 µM in each case.
For the compound `CCOC(=O)C1SC(=Nc2ccc(C)c(C)c2)N=C1C` (stereo not given), the TGI in experiment [1], in [2], in [3] and in experiment [4] was over 100 µM each time.
Regarding `O=C(N/N=C/c1cc(Br)ccc1O)N/N=C/c1cc(Br)ccc1O`, the TGI in experiment [5], in experiment [1], in experiment [3] and in [4] was over 100 µM each time.
As to `CN(C)CCC1(C2=CCCC2)CC/C(=C\c2ccc(Cl)cc2)C1=O` (stereo not given), the TGI in [5] amounted to 25.4 µM; in experiment [1] it was 7.82 µM; in experiment [2], 21.4 µM; in [3] it was 24.8 µM; in experiment [4], 13.3 µM.

(Values after PubChem BioAssay (NCI).)
